Experimental data: article PMC8403366, “Functional significance of gain-of-function H19 lncRNA in skeletal muscle differentiation and anti-obesity effects” (Genome Medicine, 2021)

System: C57BL/6 J mice
Test: Skeletal muscle immunostaining, fiber number/area, fiber typing, SDH staining
Type: in vivo, mouse
Procedure: Skeletal muscles were collected and fixed in 10% Neutral Buffered Formalin at 4 °C for 1 h, followed by 10% sucrose/PBS overnight and then 18% sucrose/PBS overnight at 4 °C before being frozen embedded and sectioned. For immunostaining, frozen cross-sections of muscle were fixed in 4% paraformaldehyde for 5 min, washed, permeabilized with 0.5% Triton X-100, and stained with indicated primary antibodies. After extensive washing in PBS-0.05% Triton X-100, the secondary antibody was added and incubated for 1 h. After extensive washing in PBS-0.05% Triton X-100, nuclei were stained with Vectashield Antifade Mounting Medium with DAPI (Vector Laboratories). Images of laminin-stained fibers were taken by Zeiss microscope. Muscle cross-sectional area and fiber numbers were quantified by ImageJ. Immunostained tissue slides were obtained with Vectra Polaris Multispectral Imaging scanner (PerkinElmer). The quantification of IF staining density was performed by Image-pro plus 6.0 (Media Cybernetics) and calculated based on the average staining intensity and the percentage of positively stained cells. To quantify myotube fusion, fusion index was calculated by dividing the number of nuclei in MHC-positive myotubes with ≥ 3 nuclei by the total number of nuclei analyzed in a field.
Muscle fiber-type immunofluorescence staining was performed with antibodies to MHC type I (supernatant, DSHB, BA-D5), MHC type IIa (supernatant, DSHB, SC-71), and MHC type IIb (supernatant, DSHB, BF-F3), as previously described. Type IIx fibers are not recognized by these antibodies and appeared black. Succinic dehydrogenase (SDH) staining was used to assess metabolic fiber type switch. Frozen cross-sections of muscle were allowed to equilibrate to room temperature and then incubated in a solution containing Nitroblue tetrazolium and sodium succinate for 20 min. Sections were washed 3 times in PBS, dehydrated in ethanol, and mounted with an aqueous mounting medium (Vector Laboratories). The antibodies used are listed in the Additional file 3: Table S3.

[1] = HFD-fed mice, staining intensity, n = 8
[2] = WT mice, 1 mg/kg i.p. every 3 days, 12 weeks, immunofluorescence, n = 8
[3] = WT mice, MHC isoform immunolabeling, vs AGR-Scr, n = 5

“N-terminal-ELTNEIPAELTNEIPA-Linker-5'-[2’-F-C][2’-F-U][2’-F-C][2’-F-U][2’-F-U][2’-F-U][2’-F-A][2’-F-U][2’-F-U][2’-F-U][2’-F-C][2’-F-U][2’-F-G][2’-F-A][2’-F-G][2’-F-C][2’-F-U][2’-F-U][2’-F-U][2’-F-C][2’-F-C][2’-F-U][2’-F-A][2’-F-U][2’-F-C][2’-F-U][2’-F-U][2’-F-U][2’-F-C][2’-F-C]-3' [AGR-H19-Rgof]” was tested, and the “fiber area in TA” value (HFD-fed mice, n = 10, 9) was “increased”, the “Ub-DMD in TA” value [1] was “reduced” and the “expression of DMD in TA” value [1] was “increased”. The “DMD protein status in TA” value [2] was “increased DMD protein status”, the “DRP2 protein status in TA” value [2] was “improved protein status” and the “nNOS protein status in TA” value [2] was “improved protein status”. The “β-dystroglycan protein status in TA” value [2] was “improved protein status”, the “fast glycolytic fiber type IIb in QUAD, SOL and TA” value [3] was “substantial shift toward” and the “percentage of fast oxidative fiber type IIa in QUAD, SOL and TA” value [3] was “reduced percentage”. The “SDH+ fibers in QUAD” value (WT mice, vs AGR-Scr, n = 5) was “reduced SDH+”, the “SDH+ in TA and GAS” value (WT mice, vs AGR-Scr, n = 5) was “minimally altered” and the “SDH+ muscle staining in SOL and EDL” value (WT mice, vs AGR-Scr, n = 5) was “increased SDH+”. The “type I fibers in SOL” value (WT mice, vs AGR-Scr, n = 5) was “marginally reduced”, the “type II fibers in SOL” value (WT mice, vs AGR-Scr, n = 5) was “increased” and the “utrophin protein status in the quadriceps (QUAD)” value (WT mice, vs AGR-Scr, n = 8) was “increased”. For the same substance, the muscle fiber area (WT mice, vs Scr mimics) was “increased” and the “number of muscle fibers (SOL, EDL, TA, GAS, QUAD)” value (WT mice, vs Scr mimics, n = 5) was “increased number”.
